Data taken from patent US10144694B2, “Methods for preparing phenolic branched chain alkyl fatty acids or esters thereof and methods for killing microorganisms” (The United States of America, as Represented by the …, priority 2016, dated 2018).
Values after ≈ are worked out from the molar mass of the structure shown. Like-named read-outs stand apart in the source and are kept apart here.

Legend:
[1] = system: Listeria innocua ATCC 33090; assay: MIC/MBC micro-dilution; format: cell-based
[2] = system: Listeria innocua ATCC 33090; assay: Antimicrobial test, 5 min treatment, plate count; format: cell-based; conditions: 0.1%
Experimental: Since the solutions contained 10% of ethanol, ethanol (10%) along with water were used as references. The bacteria and the solutions were vortexed and incubated at ambient temperature ([…]) for 5 min before immediately being plated (diluted when needed) on TSA to determine the survival of the bacteria. After 24 h at 37° C., colonies on the plates were counted.
Statistical analysis: Data on antimicrobial test were subjected to statistical analysis using SAS Version 8.2 (SAS Institute, Cary, N.C.). The Duncan's multiple range test was used for the treatment effects.

[3] = Listeria innocua, ATCC33090, 24 h

SMILES | MBC ([1]; Listeria innocua, ATCC33090) [µg/mL] | MIC [1, 3] [µg/mL] | also measured
Cc1ccc(C(C)C)cc1O [Carvacrol] | 454 (≈ 3.03 mM) | 233 to 454 (≈ 1.55 to 3.03 mM) | –
CCCCCCCC/C=C\CCCCCCCC(=O)O [OLA, oleic acid] | – | – | Reduction of population of L. innocua [2]: 3.5 logs CFU/mL
Oc1ccccc1 [Phenol, phenol] | > 454 | > 454 | Effect on population of L. innocua [2]: no significant effect
Cc1ccc(C(C)C)c(O)c1 [Thymol] | – | – | MIC ([1]; ATCC33090, Listeria innocua ATCC 33090, 24 h at 37° C., read-out: MIC): 233 to 454 µg/mL (≈ 1.55 to 3.03 mM); MBC ([1]; ATCC33090, Listeria innocua ATCC 33090, read-out: MBC): > 454 µg/mL
